Results published in PubChem BioAssay AID248 (DTP/NCI, 2004).
Toxic doses and inconclusive results are not listed.

System: L1210 leukemia ip in BDF1 mice, survival T/C
Assay: NCI In Vivo Anticancer Drug Screen. Data for tumor model L1210 Leukemia (intraperitoneal) in B6D2F1 (BDF1) mice
Settings: endpoint: mean survival time, higher = longer survival
Outline: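 Antitumor effect is assessed in tumor-bearing animals. Survival in the compound arm is compared with a vehicle-dosed control arm and expressed as their quotient.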

COc1ccc([I+]c2ccc(OC)cc2)cc1
T/C (dose: 0.63 mg/kg/injection, schedule: Q01DX009 (ip), vehicle: water): 100 % of control | T/C (dose: 1.25 mg/kg/injection, schedule: Q01DX009 (ip), vehicle: water): 101 % of control | T/C (dose: 2.5 mg/kg/injection, schedule: Q01DX009 (ip), vehicle: water): 105 % of control | T/C (dose: 2.5 mg/kg/injection, schedule: Q04DX003 (ip), vehicle: water): 103 % of control | T/C (dose: 3.12 mg/kg/injection, schedule: Q01DX009 (ip), vehicle: saline): 103 % of control | T/C (dose: 5.0 mg/kg/injection, schedule: Q04DX003 (ip), vehicle: water): 108 % of control | T/C (dose: 6.25 mg/kg/injection, schedule: Q01DX009 (ip), vehicle: saline): 107 % of control | T/C (dose: 10.0 mg/kg/injection, schedule: Q04DX003 (ip), vehicle: water): 101 % of control | T/C (dose: 12.5 mg/kg/injection, schedule: Q01DX009 (ip), vehicle: saline): 91 % of control | T/C (dose: 50.0 mg/kg/injection, schedule: Q04DX003 (ip), vehicle: acetone): 103 % of control | T/C (dose: 100.0 mg/kg/injection, schedule: Q01DX001 (ip), vehicle: saline): 111 % of control | T/C (dose: 100.0 mg/kg/injection, schedule: Q04DX003 (ip), vehicle: acetone): 100 % of control | T/C (dose: 200.0 mg/kg/injection, schedule: Q01DX001 (ip), vehicle: saline): 109 % of control

CSc1nc(C)c(Br)c(Nc2ccc(C(N)=O)cc2)n1
T/C (dose: 87.5 mg/kg/injection, schedule: Q01DX009 (ip), vehicle: Klucel (hydroxypropylcellulose) (HPC)): 94 % of control | T/C (dose: 175.0 mg/kg/injection, schedule: Q01DX009 (ip), vehicle: Klucel (hydroxypropylcellulose) (HPC)): 91 % of control | T/C (dose: 350.0 mg/kg/injection, schedule: Q01DX009 (ip), vehicle: Klucel (hydroxypropylcellulose) (HPC)): 101 % of control

COc1ccc([N+](=O)[O-])cc1NS(=O)(=O)c1ccc2ccccc2c1
T/C (dose: 100.0 mg/kg/injection, schedule: Q04DX002 (ip), vehicle: Klucel (hydroxypropylcellulose) (HPC)): 104 % of control | T/C (dose: 200.0 mg/kg/injection, schedule: Q04DX002 (ip), vehicle: Klucel (hydroxypropylcellulose) (HPC)): 100 % of control | T/C (dose: 400.0 mg/kg/injection, schedule: Q04DX002 (ip), vehicle: Klucel (hydroxypropylcellulose) (HPC)): 115 % of control

CC1(NC(=O)N(CCCl)N=O)CCCC1
T/C (dose: 16.0 mg/kg/injection, schedule: Q01DX001 (ip), vehicle: carboxymethylcellulose (CMC)): 95 % of control | T/C (dose: 31.0 mg/kg/injection, schedule: Q01DX001 (ip), vehicle: carboxymethylcellulose (CMC)): 113 % of control | T/C (dose: 62.0 mg/kg/injection, schedule: Q01DX001 (ip), vehicle: carboxymethylcellulose (CMC)): 157 % of control | T/C (dose: 125.0 mg/kg/injection, schedule: Q01DX001 (ip), vehicle: carboxymethylcellulose (CMC)): 282 % of control | T/C (dose: 250.0 mg/kg/injection, schedule: Q01DX001 (ip), vehicle: carboxymethylcellulose (CMC)): 329 % of control

O=C(O)c1c(Cl)c(Cl)cc(Cl)c1Cl
T/C (dose: 75.0 mg/kg/injection, schedule: Q01DX001 (ip), vehicle: saline): 93 % of control | T/C (dose: 150.0 mg/kg/injection, schedule: Q01DX001 (ip), vehicle: saline): 93 % of control | T/C (dose: 300.0 mg/kg/injection, schedule: Q01DX001 (ip), vehicle: saline): 96 % of control

CCCC(C)OS(=O)(=O)c1ccc([N+](=O)[O-])cc1 (stereo not given)
T/C (dose: 100.0 mg/kg/injection, schedule: Q04DX002 (ip), vehicle: saline): 101 % of control | T/C (dose: 200.0 mg/kg/injection, schedule: Q04DX002 (ip), vehicle: saline): 90 % of control | T/C (dose: 400.0 mg/kg/injection, schedule: Q04DX002 (ip), vehicle: saline): 92 % of control
